Assay results reported in US10487054B2, “Therapeutic compounds” (REGENTS OF THE UNIVERSITY OF MINNESOTA, priority 2017, dated 2019).

Experiments:
[1] = Absorbance scan by spectrophotometer; format: physicochemical
Method: Absorbance wavelengths of compound 1 were scanned using a Beckman DU®800 spectrophotometer.
In order to confirm whether compound 1 absorbs at UVA or UVB wavelengths, its ability to absorb SUV light between […] was examined. […] In addition, an anchorage-independent growth assay was performed to assess the effect of compound 1 on cell transformation. […] Similarly, cell proliferation was determined by a crystal violet staining assay.

SKH-1 hairless mice = assay: SUV-induced mouse skin tumorigenesis, late-stage prevention model; format: in vivo
Method: Tumor volume was calculated according to the following formula: tumor volume (mm^3)=length×width×height×0.52. […] For 5B and 5C, data are represented as mean values±S.D. and differences were determined by one-way ANOVA. The asterisk (*) indicates a significant decrease compared to the group exposed to SUV only or the group treated with vehicle followed by SUV (***, p<0.001). […] Dorsal trunk skin samples were harvested and stained with H&E (left panels) or with an antibody to detect PCNA (right panels). […] Expression of PCNA was quantified using Image-Pro Plus software and stained cells were counted from 5 separate areas on each slide (lower panel). An average of 3 samples was calculated per group. Data are expressed as mean percent of control±S.D. and the asterisks indicate a significant difference in PCNA expression (***, p<0.001). […] The expression levels of phosphorylated and total proteins were analyzed by Western blot.
Mice were weighed once a week until week 28. […] SKH-1 hairless mice were treated as described in Materials and Methods. The mice in the control groups (n=9) received no vehicle/no SUV (n=3), vehicle/no SUV (n=3), or 1 mg compound 1/no SUV (n=3), respectively. The mice in the rest of the groups received SUV irradiation for 15 weeks 3 times a week. The mice in the vehicle/SUV-treated group (n=12) were treated with oil-in-water emulsion cream 3 times a week until the end of the experiment (28 weeks). The mice in the 0.1 mg/SUV or 1 mg/SUV groups (n=12 each) received treatment with compound 1 (0.1 or 1 mg, respectively) 3 times a week until the end of the experiment (28 weeks). The respective doses of oil-in-water emulsion cream or compound 1 were applied topically to the dorsal area. Tumor incidence and multiplicity were recorded weekly until the end of the experiment at week 28.
Female SKH-1 hairless mice were purchased from Charles River and were acclimated for 2 weeks before the study and had free access to food and water. All animals were maintained according to the guidelines approved by the University of Minnesota Institutional Animal Care and Use Committee (IACUC). The animals were housed in climate-controlled quarters with a 12-h light/dark cycle. The skin carcinogenesis experiments were conducted using 6-8 wk old mice with a mean body weight of 25 g. Skin carcinogenesis was induced by a solar simulated ultraviolet irradiation system. The SUV irradiation source (Q-Lab Corporation, Westlake, Ohio) emitted at wavelengths of 295 to 365 nm and the peak emission was 340 nm.
For the late-stage prevention model, the control and experimental groups were identical to those for the early prevention model. However, the experimental groups of mice were exposed to SUV irradiation 3 times a week for 15 weeks without application of vehicle or compound 1 in vehicle. At the end of 15 weeks, SUV exposure was stopped and application of vehicle with or without compound 1 was begun and continued for 13 weeks until week 28 at which time the study was discontinued and mice euthanized and tissues harvested.
At week 1, mice were irradiated with SUV at a dose of 36 kJ/m^2 UVA and 1.8 kJ/m^2 UVB. At week 6, the dose of SUV reached 60 kJ/m^2 UVA and 2.9 kJ/m^2 UVB and this dose was maintained from week 6 to week 15. The respective doses of vehicle or compound 1 were applied topically to the dorsal area. Mice were weighed and tumors were measured once a week until week 28 or when tumor load reached 1 cm^3 total volume. At that time mice were euthanized and one-half of each sample was immediately fixed in 10% formalin and processed for hematoxylin and eosin (H&E) staining and immunohistochemistry. The other one-half of the sample was frozen and used for Western blot analysis.
Skin tissues were embedded in paraffin and subjected to immunohistochemistry. Tissues were de-paraffinized and hydrated and then permeabilized with 0.5% Triton X-100/1×PBS for 10 min. […]

[2] = late-stage model, topical 0.1 or 1 mg, vs vehicle-treated group, 28 weeks

peak absorption ([1]; scanned between 250 and 320 nm): 259 nm | wavelength range of main light absorption ([1]; scanned between 250 and 320 nm): 250-275 nm
Structure (SMILES): O=C1Nc2ccc(C34CC5CC(CC(C5)C3)C4)cc2C1=NO [compound 1, 5-(adamantan-1-yl)-3-(hydroxyimino)indolin-2-one]
absorbance of UVA or UVB [1]: did not show significant absorbance of UVA or UVB | epidermal thickness (SKH-1 hairless mice; late-stage model, H&E): dramatically decreased | formation of SCCs (SKH-1 hairless mice; late-stage model, H&E): inhibited | SUV-induced phosphorylation of ERK1/2, p38, and JNKs in mouse skin (SKH-1 hairless mice; late-stage model, Western blot): dramatically suppressed | expression of PCNA (SKH-1 hairless mice; late-stage model, immunohistochemistry of skin): decreased | tumor multiplicity (SKH-1 hairless mice; [2]): significantly reduced | tumor volume (SKH-1 hairless mice; [2]): significantly reduced | malignancy rate (SKH-1 hairless mice; late-stage model, vs vehicle-treated mice): significantly decreased | SUV-induced tumor incidence (SKH-1 hairless mice; late-stage prevention group): substantial suppression | body weight (SKH-1 hairless mice; topical application on dorsal skin, late-stage model, to week 28): no effect on body weight
